Bridge positions count the residues as written; N and C are the ends. Square brackets hold non-standard residues; d marks the D form. Peptide text beside a SMILES is read from it. 2Nal = N[C@@H](Cc1ccc2ccccc2c1)C(=O)O; Cit = NC(=O)NCCC[C@H](N)C(=O)O
Legend:
in vitro = conditions: human, HELA cells (Acc57)
[1] = test system: 'CCR5' cells / Hut/4-3 cells co-cultivation; assay: FIGS-Assay; format: cell-based; conditions: 200 nM peptide, 48 hours of co-cultivation
Method: The assay was performed according to ref. 5, below. Stock dilutions of the peptides (10 mM) were prepared by dissolving in 10 mM Tris-HCl at room temperature. Stock solutions were kept at +4° C., light protected. Working dilutions were prepared extemporaneously by serial dilution in Phosphate Buffered Saline (PBS) and added in a final volume of 10 μl directly to the cell cultures. After 48 hours of co-cultivation the cultures were rinsed with PBS and then exposed to glutaraldehyde/formaldehyde (0.2%/2%) in PBS for five minutes. For photometric quantification the fixed cultures were subsequently incubated with ortho-nitro-phenyl-galactopyranoside (ONPG) as a β-galactosidase substrate, which was enzymatically converted into the chromophore ortho-nitrophenol (ONP). The read out is directly obtained by measuring optical density of wells at 405 nm in an iEMS 96well-plate reader.
(§1) All fine chemicals came from Merck (Darmstadt, Germany).

[2] = test system: human red blood cells (hRBC); assay: Hemolysis; format: cell-based
How it was run: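 Washed fresh human erythrocytes (20% v/v, about 0.9×10^9 cells/ml final) incubated with peptide at 100 μM for 1 h at 37° C. Supernatant diluted 20-fold and OD540 read. Percent hemolysis relative to 0.1% Triton X-100 in H2O (100%), with PBS alone as 0%.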

CXCR4 = CXCR4 (Homo sapiens, UniProt P61073); assay: Ca2+-assay method 1: CXCR4-antagonizing activity; format: cell-based; design: expressed in transfected cells; conditions: method 1 (Ex. 1-53), CXCR4 transfected pre-B cells, Fura-2; read-out: IC50 (nM) Ca^2+ assay
Sequence of CXCR4 (P61073 whole entry): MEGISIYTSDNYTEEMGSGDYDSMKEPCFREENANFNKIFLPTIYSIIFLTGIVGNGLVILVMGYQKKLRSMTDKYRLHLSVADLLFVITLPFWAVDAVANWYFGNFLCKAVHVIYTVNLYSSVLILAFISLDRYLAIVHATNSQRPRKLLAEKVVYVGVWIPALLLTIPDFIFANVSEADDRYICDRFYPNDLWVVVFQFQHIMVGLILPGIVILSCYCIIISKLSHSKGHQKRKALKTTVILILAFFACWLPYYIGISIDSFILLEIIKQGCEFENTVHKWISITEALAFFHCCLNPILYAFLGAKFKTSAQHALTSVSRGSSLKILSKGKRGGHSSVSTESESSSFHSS
Method: 2.2. Ca^2+-Assay: CXCR4-Antagonizing Activity of the Peptides.
The cells were washed free from Fura-2-AM with a platelet centrifuge and resuspended in 800 μl MSB containing 5 mM D-Glucose. The peptides to be administered were diluted to a 100 fold end concentration in MSB/0.2% PPL, and 8 μl were injected. […] Measurements were done under continuous stirring at 37° C. The signal intension was calibrated with 3 mM CaCl2/[…] lonomycin (maximal fura-2-acetoxymethylester saturation) and 10 μM MnCl2 (minimal Fura-2-acetoxymethylester saturation) and [Ca^2+]i-changes are presented in % fora-2-acetoxymethylester saturation. The rate of [Ca^2+]i-changes was calculated on the basis of the initial [Ca^2+]i-changes and plotted in dependence of chemokine concentration to obtain a sigmoidal curve and to determine the IC50 values.
Osmolarity: 310 mOsm adjusted with NaOH or HCl, adjusted with H2O or PBS.
MSB plus: 5 mM D-glucose in MSB (50 mg/50 mL).
Fura 2-acetoxymethylester: 1 mM stock solution in dimethylsulfoxide.

[3] = Cytotoxicity assay (MTT reduction), HELA cells; conditions: human, HELA cells (Acc57);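 further: MTT reduction read as absorbance at 595 nm, blank-corrected and expressed as percent growth relative to the time-zero cell reading, triplicate wells per concentration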
CCRF-CEM cells = assay: Chemotactic assay (cell migration assay); format: cell-based; conditions: 1 nM SDF-1, 4 hours
Method: as §1
2.7. Chemotactic Assay (Cell Migration Assay)
The chemotactic response of CCRF-CEM cells to a gradient of stromal cell-derived factor 1α (SDF-1) was measured using disposable assay plates from Neuroprobe (5μ pore size) (Gaithersburg, Md.), according to the manufacturer's directions and references therein [especially ref. 8, below]. Briefly, one 175 cm^2 flask was washed once with Dubecco's phosphate buffered saline (DPBS), and trypsinized for 10 minutes or until cells had lifted. The trypsin was neutralized by the addition of fresh medium containing serum and the cells were pelleted, washed once in DPBS, and resuspended at 1-0.5×10^7 cells/ml in RPMI+0.5% bovine serum albumin (BSA). 45 μl of cell suspension were mixed with 5 μl of 10-fold concentrated PEM peptide diluted in the same assay medium. […] The optical absorbance at 595 nm (ABS595) was read using a Tecan Genios plate reader with Magellan software. The number of cells migrated was determined by comparing ABS595 values against a standard curve generated with a known number of cells in the assay plate and were plotted against SDF-1 concentration to obtain a sigmoidal curve and to determine the IC50 values. The values for IC50 were determined using the Trendline function in Microsoft Excel by fitting a logarithmic curve to the averaged datapoints.

CC(C)[C@@H]1NC(=O)[C@H](CCCNC(N)=O)NC(=O)[C@H](CCCNC(=N)N)NC(=O)[C@H](Cc2ccc(O)cc2)NC(=O)[C@@H]2CCCN2C(=O)[C@H]2CCCN2C(=O)[C@H](CCCCN)NC(=O)[C@H](CCCNC(N)=O)NC(=O)[C@H](Cc2ccc(O)cc2)NC(=O)[C@H](C(C)C)NC(=O)[C@H](Cc2ccc3ccccc3c2)NC(=O)[C@H](CCCNC(=N)N)NC(=O)[C@H](CCCNC(=N)N)NC(=O)[C@H]2CCCN2C(=O)CNC(=O)[C@H](CCCNC(=N)N)NC1=O [compound 45] (cyclo(YR[Cit]VRG[dP]RR[2Nal]VY[Cit]K[dP]P))
CC50 at 48 h (in vitro): 132 µM
FIGS % inhibition at 200 nM [1]: 65.1%
Hemolysis at 100 μM [2]: 0.4%

CC(C)[C@@H]1NC(=O)[C@H](CCCNC(=N)N)NC(=O)[C@@H]2CSSC[C@H](NC(=O)[C@H](Cc3ccc4ccccc4c3)NC(=O)[C@H](CCCNC(=N)N)NC(=O)[C@H](CCCNC(=N)N)NC(=O)CNC1=O)C(=O)N[C@@H](Cc1ccc(O)cc1)C(=O)N[C@@H](CCCNC(N)=O)C(=O)N[C@@H](CCCCN)C(=O)N1CCC[C@@H]1C(=O)N1CCC[C@H]1C(=O)N[C@@H](Cc1ccc(O)cc1)C(=O)N[C@@H](CCCNC(=N)N)C(=O)N[C@@H](CCCNC(N)=O)C(=O)N2 [compound 53] (cyclo(YR[Cit]CRVGRR[2Nal]CY[Cit]K[dP]P); disulfide 4-11)
IC50 (CXCR4): 57.8 nM
FIGS % inhibition at 200 nM [1]: 91.8%
CC50 at 48 h [3]: 86 µM
Hemolysis at 100 μM [2]: 0.2%

CC(C)[C@@H]1NC(=O)[C@H](CCCNC(=N)N)NC(=O)[C@H](Cc2ccccc2)NC(=O)[C@H](CCCNC(N)=O)NC(=O)[C@H](CCCNC(=N)N)NC(=O)[C@H](Cc2ccc(O)cc2)NC(=O)[C@@H]2CCCN2C(=O)[C@H]2CCCN2C(=O)[C@H](CCCCN)NC(=O)[C@H](CCCNC(N)=O)NC(=O)[C@H](Cc2ccc(O)cc2)NC(=O)[C@H](Cc2ccccc2)NC(=O)[C@H](Cc2ccc3ccccc3c2)NC(=O)[C@H](CCCNC(=N)N)NC(=O)[C@H](CCCNC(=N)N)NC(=O)[C@@H]2CCCN2C1=O [compound 28] (cyclo(YR[Cit]FRVPRR[2Nal]FY[Cit]K[dP]P))
IC50 (CXCR4): 2680 nM
CC50 at 48 h (in vitro): 117 µM
Hemolysis at 100 μM [2]: 0.9%

CC(C)[C@@H]1NC(=O)[C@H](CCCNC(N)=O)NC(=O)[C@H](CCCNC(=N)N)NC(=O)[C@H](Cc2ccc(O)cc2)NC(=O)[C@@H]2CCCN2C(=O)[C@H]2CCCN2C(=O)[C@H](CCCCN)NC(=O)[C@H](CCCNC(N)=O)NC(=O)[C@H](Cc2ccc(O)cc2)NC(=O)[C@H](Cc2ccccc2)NC(=O)[C@H](Cc2ccc3ccccc3c2)NC(=O)[C@H](CCCNC(=N)N)NC(=O)[C@H](CCCNC(=N)N)NC(=O)[C@@H]2CCCN2C(=O)[C@H](CCCNC(N)=O)NC(=O)[C@H](CCCNC(=N)N)NC1=O [compound 31] (cyclo(YR[Cit]VR[Cit]PRR[2Nal]FY[Cit]K[dP]P))
IC50 (CXCR4): 1470 nM
CC50 at 48 h (in vitro): 82 µM
Hemolysis at 100 μM [2]: 0.1%

N=C(N)NCCC[C@@H]1NC(=O)CNC(=O)CNC(=O)[C@H](CCCNC(=N)N)NC(=O)[C@@H]2CSSC[C@H](NC(=O)[C@H](Cc3ccc4ccccc4c3)NC(=O)[C@H](CCCNC(=N)N)NC1=O)C(=O)N[C@@H](Cc1ccc(O)cc1)C(=O)N[C@@H](CCCNC(N)=O)C(=O)N[C@@H](CCCCN)C(=O)N1CCC[C@@H]1C(=O)N1CCC[C@H]1C(=O)N[C@@H](Cc1ccc(O)cc1)C(=O)N[C@@H](CCCNC(=N)N)C(=O)N[C@@H](CCCNC(N)=O)C(=O)N2 [Ex. 52] (cyclo(YR[Cit]CRGGRR[2Nal]CY[Cit]K[dP]P); disulfide 4-11)
IC50 (CXCR4): 3.1 nM
IC50 (CCRF-CEM cells): 2.75 µM
FIGS % inhibition at 200 nM [1]: 95.4%
CC50 at 48 h [3]: 99 µM
Hemolysis at 100 μM [2]: 0%

CC(C)[C@@H]1NC(=O)[C@H](Cc2ccc3ccccc3c2)NC(=O)[C@H](CCCNC(=N)N)NC(=O)[C@@H](CCCNC(=N)N)NC(=O)[C@H](CCCNC(=N)N)NC(=O)[C@H](C(C)C)NC(=O)[C@H](CCCNC(N)=O)NC(=O)[C@H](CCCNC(=N)N)NC(=O)[C@H](Cc2ccc(O)cc2)NC(=O)[C@@H]2CCCN2C(=O)[C@H]2CCCN2C(=O)[C@H](CCCCN)NC(=O)[C@H](CCCNC(N)=O)NC(=O)[C@H](Cc2ccc(O)cc2)NC1=O [compound 2] (cyclo(YR[Cit]VR[dR]R[2Nal]VY[Cit]K[dP]P))
IC50 (CXCR4): 2830 nM
CC50 at 48 h (in vitro): 97 µM
Hemolysis at 100 μM [2]: 0.9%

CC(C)[C@@H]1NC(=O)[C@H](Cc2ccc3ccccc3c2)NC(=O)[C@H](CCCNC(=N)N)NC(=O)[C@H](CCCNC(=N)N)NC(=O)[C@H]2CCCN2C(=O)[C@H](Cc2ccccc2)NC(=O)[C@H](CCCNC(=N)N)NC(=O)[C@H](Cc2ccccc2)NC(=O)[C@H](CCCNC(N)=O)NC(=O)[C@H](CCCNC(=N)N)NC(=O)[C@H](Cc2ccc(O)cc2)NC(=O)[C@@H]2CCCN2C(=O)[C@H]2CCCN2C(=O)[C@H](CCCCN)NC(=O)[C@H](CCCNC(N)=O)NC(=O)[C@H](Cc2ccc(O)cc2)NC1=O [compound 23] (cyclo(YR[Cit]FRF[dP]RR[2Nal]VY[Cit]K[dP]P))
IC50 (CXCR4): 1550 nM
CC50 at 48 h (in vitro): 49 µM
Hemolysis at 100 μM [2]: 1.4%

CC(C)[C@@H]1NC(=O)[C@H](Cc2ccc3ccccc3c2)NC(=O)[C@H](CCCNC(=N)N)NC(=O)[C@H](CCCNC(=N)N)NC(=O)[C@@H]2CCCN2C(=O)[C@H](CCCNC(N)=O)NC(=O)[C@H](CCCNC(=N)N)NC(=O)[C@H](Cc2ccccc2)NC(=O)[C@H](CCCNC(N)=O)NC(=O)[C@H](CCCNC(=N)N)NC(=O)[C@H](Cc2ccc(O)cc2)NC(=O)[C@@H]2CCCN2C(=O)[C@H]2CCCN2C(=O)[C@H](CCCCN)NC(=O)[C@H](CCCNC(N)=O)NC(=O)[C@H](Cc2ccc(O)cc2)NC1=O [compound 20] (cyclo(YR[Cit]FR[Cit]PRR[2Nal]VY[Cit]K[dP]P))
IC50 (CXCR4): 3730 nM
CC50 at 48 h (in vitro): 85 µM
Hemolysis at 100 μM [2]: 0.2%
